Experimental data from PubChem BioAssay (NCI).
“And” between values parts separate entries of the source, which are not always exact repeats. Equal entries are not always repeated.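 Step 1: Grow cells in 96-well plates. Step 2: Expose to compound for 48 hours at 5 concentrations. Step 3: Interpolate endpoints linearly; if unreached, use highest concentration. GI50 marks 50% less growth. TGI marks complete inhibition of growth.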

Assays:
Test in all cases: NCI tumour cell line growth inhibition, 48 h
[1] = test system: LOX IMVI melanoma
[2] = test system: MDA-MB-435
[3] = test system: HL-60(TB) leukemia
[4] = test system: MOLT-4 leukemia
[5] = test system: U251 CNS
[6] = test system: NCI-H460 lung
[7] = test system: NCI-H522 lung
[8] = test system: SF-268 CNS
[9] = test system: DMS 273 small cell lung
[10] = test system: NCI-H23 lung
[11] = test system: SK-MEL-28 melanoma
[12] = test system: SK-MEL-2 melanoma
[13] = test system: P388/ADR leukemia
[14] = test system: TK-10 renal
[15] = test system: HOP-62 NSCLC
[16] = test system: KM20L2 colon
[17] = test system: NCI-H226 lung
[18] = test system: SR leukemia
[19] = test system: IGROV1 ovarian
[20] = test system: DMS 114 small cell lung
[21] = test system: SK-OV-3 ovarian
[22] = test system: HOP-18 NSCLC
[23] = test system: MALME-3M melanoma
[24] = test system: MDA-MB-231 breast
[25] = test system: SF-539 CNS
[26] = test system: MCF7 breast
[27] = test system: SN12C renal
[28] = test system: LXFL 529 NSCLC

CCOC(=O)C(CC(C)C)NC(=O)C(Cc1ccc(N(CCCl)CCCl)cc1)NC(C)=O (centres undefined)
GI50 [1]: 3.34 µM
TGI [1]: 15.1 µM and 12.5 µM
TGI [2]: 11.5 µM
GI50 [3]: 2.07 µM
TGI [3]: 28.7 µM and 3.32 µM
GI50 [4]: 2.04 µM and 0.307 µM
TGI [4]: 15.5 µM and 3.31 µM
GI50 [5]: 10.2 µM
TGI [5]: 26.2 µM and 27 µM
TGI [6]: 14.1 µM and 17.6 µM
GI50 [7]: 2.52 µM
TGI [7]: 8.68 µM and 3.87 µM
TGI [8]: 22.6 µM and 20.5 µM
TGI [9]: 20.1 µM and 24.9 µM
GI50 [10]: 5.17 µM
TGI [10]: 16.7 µM and 16.5 µM
GI50 [11]: 14.6 µM
TGI [11]: 31.2 µM and 19.3 µM
GI50 [12]: 1.81 µM
TGI [12]: 4.74 µM and 5.49 µM
TGI [13]: 10.5 µM
TGI [14]: 30.2 µM and 32.2 µM
GI50 [15]: 6.09 µM
TGI [15]: 23.1 µM and 14.2 µM
GI50 [16]: 13.8 µM
TGI [16]: 29.7 µM and 46.9 µM
GI50 [17]: 12.2 µM
TGI [17]: 28.3 µM and 41.1 µM
GI50 [18]: 1.04 µM and 0.895 µM
TGI [18]: 10.8 µM and 7 µM
TGI [19]: 33.2 µM and 29.3 µM
GI50 [20]: 1.37 µM
TGI [20]: 12.2 µM and 7.05 µM
GI50 [21]: 21.7 µM
TGI [21]: 58.6 µM and 35.5 µM
TGI [22]: 33.7 µM
GI50 [23]: 4.01 µM
TGI [23]: 22.8 µM and 7.77 µM
TGI [24]: 23.2 µM
TGI [25]: 10.6 µM and 9.63 µM
TGI [26]: 25.9 µM
GI50 [27]: 4.59 µM
TGI [27]: 17.2 µM and 14.6 µM
TGI [28]: 26.5 µM
